From patent publication US20160302411A1, “BLENDS AND THEIR USE IN THE CONTROLLING AND/OR TRAPPING OF MOTHS” (BIOFORSK (THE NORWEGIAN INSTITUTE FOR AGRICULTURAL AND …, priority 2013, published 2016)

Tested on: antennae of mated female C. nigricana
Assay: GC-EAD electro-antennography, antennal response to synthetic pea volatiles
Set-up: species or system Cydia nigricana
Conditions: for increase of antennal response with dose, ANOVA P: GC-EAD dose response over four doses (FIG. 1)
Experimental: C. nigricana were collected as larvae in the North of Hesse, Germany. The keeping of the insects followed the protocol of Thöming and Saucke (2011). Emerging adults mated in Plexiglas cages (30×30×30 cm) in a climate chamber (18±2° C., 60-70% RH, 18:6h L:D). The moths were provided with 10%-honey water solution and water until the experiment. Antennal recordings and wind tunnel tests were done with five-to-seven-days old mated females. After the experiments, females were dissected to verify their mating status and only mated females were used for analysis.
The synthetic odour sources were prepared to mimic natural pea flower odour. The quantity, ratio and blend composition was based on the identification and quantification of compounds emitted from detached pea flowers (50 flowers/headspace sample; mean value, n=10) of P. sativum (cv. AVOLA). The synthetic analogues of all 28 identified compounds released from pea plant material (Table 1) were used for combined gas chromatography-electroantennal detection (GC-EAD) analysis.
GC-EAD was used for antennal recordings on a HP 6890N gas chromatograph, equipped with an HP-5 (30 m×320 μm×0.25 μm; Agilent, Santa Clara, Calif., US) capillary GC column, programmed from 40° C. (hold for 0.5 min) at 8° C./min to 160° C., then 25° C./min to 230° C. (hold for 4 min), and coupled with an electro-antennogram apparatus (Syntech, Hilversum, The Netherlands). The outlet of the GC column was split in a 1:1 ratio between the flame ionization detector (FID) and a pair of cut pea moth antennae which was connected to the EAD. The antennae were mounted in a holder (Syntech) between two silver electrodes, using electrically conductive Gel (Parker, Fairfield, N.J., US). The EAD capillary effluent was delivered to the antennae through a heated transfer line (Syntech) in a glass tube (12 cm×8 mm) in which humidified air was flowing through. The antennal signal and the FID signal were amplified and recorded simultaneously using Syntech software. Each sample injected on the GC contained 5-9 synthetic compounds with different retention times. Each compound was injected at four doses (200 ng, 60 ng, 20 ng, 6 ng), equivalent to 100 ng, 30 ng, 10 ng, 3 ng tested on the antennae. The antennal responses towards compounds and dose rates, respectively, were replicated three to five times, always using a new pair of antennae. […] Only antennae with differences less than 5 μV between the puff before and after the treatment were used for analysis.

SMILES | increase of antennal response with dose, ANOVA P | antennal response to odour puff (antennal condition test) (10 μg in 10 μl hexane on filter paper, puff 10 ml/sec during 0.2 sec)
C=C/C(C)=C/CC=C(C)C [(E)-β-ocimene] | 0.0051 | –
CCCCCCCCC=O [nonanal] | 0.0067 | –
C=C/C=C(\C)CCC=C(C)C [DMNT, 4,8-dimethyl-1, (E) 3,7-nonatriene, reference compound] | – | reproducible antennal responses
CCC/C=C/C=O [2-(E)-hexenal] | 0.0139 | –
CCCCCCCC=O [octanal] | < 0.0001 | –
CC/C=C\CCO [(Z)-3-hexenol] | 0.6578 | –
CC/C=C\CCOC(C)=O [(Z)-3-hexenyl acetate] | 0.0091 | –
CCCCCCO [1-hexanol] | 0.0003 | –
CCC/C=C/CO [(E)-2-hexen-1-ol] | 0.0049 | –
C=C/C(C)=C\CC=C(C)C [(Z)-β-ocimene] | 0.0252 | –
